{"source": "patent US20230099441A1", "about": "“HETEROCYCLIC COMPOUND, APPLICATION THEREOF, AND COMPOSITION CONTAINING SAME” (GenEros Biopharma Ltd., priority 2019, published 2023)", "test_system": "mouse collagen-induced arthritis model", "assay": "Therapeutic efficacy in a mouse collagen-induced arthritis model (clinical score)", "format": "in vivo", "settings": "for clinical score of arthritis, Mean (the larger the value, the more severe the disease): mean of group, total score 0-12, oral, Methotrexate 0.25 mg/kg once a week, Tofacitinib 5 mg/kg once a day, X8 1 mg/kg once a day", "excerpt": "Example of Effect 2: Evaluation of the Therapeutic Efficacy of X8 Compound in a Mouse Collagen-Induced Arthritis Model\nSixty male DBA/1J mice (9-10 weeks old, H-2q haplotype) were acclimatized in a standard animal room for one week and then randomly divided into 5 groups. Except for the healthy control group, the rest were inoculated with collagen antigen injection, and then received oral treatment with different compounds. The brief procedure was to mix bovine type II collagen (purchased from Chondrex, 20021) with an equal volume of Freund's complete adjuvant (purchased from Sigma, F5881), the concentration was 4 mg/ml, and it was treated with a homogenizer at a speed of 20,000 revolutions/min for 5-10 minutes. A needle was inserted between the left side of the dorsal caudal artery and the lateral vein of the mouse, and 50 microliters of modeling agent was injected subcutaneously. 21 days after the first injection, another injection was injected between the right side of the dorsal tail artery and the lateral vein of the mouse. After the first injection, oral administration was started. The drug was formulated with […] PEG300, and it was prepared for immediate use. […] The total score was between 0-12 points, and the swelling of the foot after vaccination was not calculated."}
{"smiles": "O=C(Cc1ccc(C(F)(F)F)cc1)N1CCC(n2c(=O)[nH]c3ccccc32)CC1", "note": "[Example X8, 1-(1-(2-(4-(trifluoromethyl)phenyl)acetyl)piperidin-4-yl)-1H-benzo[d]imidazole-2(3H)-one]", "values": [{"measurement": "therapeutic effect on severity of the disease (in words)", "setting": "X8 1 mg/kg once a day oral, compared with tofacitinib 5 mg/kg once a day", "result": "comparable effects to the tofacitinib treatment group, which significantly reduced the severity of the disease"}, {"measurement": "clinical score of arthritis, Mean (the larger the value, the more severe the disease)", "setting": "day 0", "result": 0.00}, {"measurement": "clinical score of arthritis, Mean (the larger the value, the more severe the disease)", "setting": "day 21", "result": 0.00}, {"measurement": "clinical score of arthritis, Mean (the larger the value, the more severe the disease)", "setting": "day 25", "result": 0.00}, {"measurement": "clinical score of arthritis, Mean (the larger the value, the more severe the disease)", "setting": "day 28", "result": 0.98}, {"measurement": "clinical score of arthritis, Mean (the larger the value, the more severe the disease)", "setting": "day 31", "result": 1.66}, {"measurement": "clinical score of arthritis, Mean (the larger the value, the more severe the disease)", "setting": "day 33", "result": 2.39}, {"measurement": "clinical score of arthritis, Mean (the larger the value, the more severe the disease)", "setting": "day 35", "result": 2.64}, {"measurement": "clinical score of arthritis, Mean (the larger the value, the more severe the disease)", "setting": "day 38", "result": 2.87}, {"measurement": "clinical score of arthritis, Mean (the larger the value, the more severe the disease)", "setting": "day 40", "result": 2.87}, {"measurement": "clinical score of arthritis, Mean (the larger the value, the more severe the disease)", "setting": "day 42", "result": 3.17}, {"measurement": "clinical score of arthritis, Mean (the larger the value, the more severe the disease)", "setting": "day 45", "result": 3.39}]}
